This is an account of results in ChEMBL document CHEMBL4619730, “Hypolipidemic constituents from the aerial portion of Sibiraea angustata” (Bioorg Med Chem Lett, 2020).

Holding throughout (format): functional, cell-based
Experiment [1] has as its system HepG2. Kind of experiment: Hypolipidemic activity against oleic acid-induced lipid accumulation in human HepG2 cell model assessed as decrease in 1acyl-sn-glycero-3phosphocholines (18:2/0:0) level at 10 uM by UPLC-QTOF-MS analysis.
Experiment [2] deals with HepG2. Kind of experiment: Hypolipidemic activity against oleic acid-induced lipid accumulation in human HepG2 cell model assessed as decrease in diglycerides (20:4/18:2/0:0) level at 10 uM by UPLC-QTOF-MS analysis.
Experiment [3] deals with HepG2. In words: Hypolipidemic activity against oleic acid-induced lipid accumulation in human HepG2 cell model assessed as decrease in phosphatidylcholine (18:2/18:2) level at 10 uM by UPLC-QTOF-MS analysis.
The subject of experiment [4] is HepG2. In words: Hypolipidemic activity against oleic acid-induced lipid accumulation in human HepG2 cell model assessed as decrease in triglycerides (18:1/16:0/20:5) level at 10 uM by UPLC-QTOF-MS analysis.
Experiment [5] deals with HepG2. In words: Downregulation of FASN mRNA expression in human HepG2 cells at 10 uM by qRT-PCR analysis. In general terms: Quantitative PCR measures a nucleic acid by following its amplification.
Experiment [6] has as its system HepG2. Kind of experiment: Hypolipidemic activity against oleic acid-induced lipid accumulation in human HepG2 cell model assessed as decrease in triglycerides (16:0/14:0/20:5) level at 10 uM by UPLC-QTOF-MS analysis.
Experiment [7] relates to HepG2. Kind of experiment: Hypolipidemic activity in human HepG2 cells assessed as inhibition of oleic acid-induced lipid accumulation at 10 uM.
Experiment [8] concerns HepG2. In words: Hypolipidemic activity against oleic acid-induced lipid accumulation in human HepG2 cell model assessed as decrease in triglycerides (16:0/16:0/18:3) level at 10 uM by UPLC-QTOF-MS analysis.
The test system of experiment [9] is HepG2. Kind of experiment: Hypolipidemic activity against oleic acid-induced lipid accumulation in human HepG2 cell model assessed as decrease in diglycerides (18:2/20:5/0:0) level at 10 uM by UPLC-QTOF-MS analysis.
Experiment [10] has as its system HepG2. In words: Hypolipidemic activity against oleic acid-induced lipid accumulation in human HepG2 cell model assessed as decrease in diglycerides (20:5/16:0/0:0) level at 10 uM by UPLC-QTOF-MS analysis.
The subject of experiment [11] is HepG2. Kind of experiment: Hypolipidemic activity against oleic acid-induced lipid accumulation in human HepG2 cell model assessed as decrease in phosphatidylcholine (O-16:0/20:5) level at 10 uM by UPLC-QTOF-MS analysis.
For experiment [12], the system named is HepG2. In words: Downregulation of SREBF1 mRNA expression in human HepG2 cells at 10 uM by qRT-PCR analysis.
Experiment [13] has as its system HepG2. In words: Hypolipidemic activity against oleic acid-induced lipid accumulation in human HepG2 cell model assessed as decrease in triglycerides (18:1/18:3/18:1) level at 10 uM by UPLC-QTOF-MS analysis.
Experiment [14] concerns HepG2. In words: Hypolipidemic activity against oleic acid-induced lipid accumulation in human HepG2 cell model assessed as decrease in diglycerides (20:1/0:0/20:4) level at 10 uM by UPLC-QTOF-MS analysis.
Experiment [15] deals with HepG2. Kind of experiment: Downregulation of HMGCR mRNA expression in human HepG2 cells at 10 uM by qRT-PCR analysis.

Activity calls are given as the source filed them. The rule behind the calls is not given here.

On to `COc1ccc(/C=C/C(=O)OC[C@@H]2O[C@H](OC/C=C3\C[C@@H](C=C(C)C)OC3=O)[C@@H](O)[C@H](O)[C@H]2O)cc1O`, for which the outcome with HepG2 [1], in the experiment on HepG2 [2], in the experiment on HepG2 [3], in the experiment on HepG2 [4], in the experiment on HepG2 [6] and with HepG2 [7] was Active. Besides, the result in the experiment with HepG2 [8], in the experiment on HepG2 [9], with HepG2 [10], in the experiment on HepG2 [11], with HepG2 [13] and with HepG2 [14] was Active. Also, the inhibition entry in the experiment with HepG2 [5] is “Active”. Moreover, the inhibition result in the experiment on HepG2 [12] and in the experiment on HepG2 [15] was “inactive” each time.
`CC(C)=CC(=O)/C=C(\C)CCO[C@H]1O[C@@H](COC(=O)/C=C/c2ccc(O)c(O)c2)[C@H](O)[C@@H](O)[C@@H]1O`: the outcome in the experiment on HepG2 [7] was Active.
Same read-out and setting: as for `COc1ccc(/C=C/C(=O)OC[C@@H]2O[C@H](OC/C=C3\C[C@H](C=C(C)C)OC3=O)[C@@H](O)[C@H](O)[C@H]2O)cc1O`, the entry is “Active”; as for `COC(=O)/C=C/c1ccc(O)c(OC)c1`, “inactive”; as for `CC(C)=C[C@H]1C/C(=C\CO[C@H]2O[C@@H](COC(=O)/C=C/c3ccc(O)cc3)[C@H](O)[C@@H](O)[C@@H]2O)C(=O)O1`, “inactive”.
For the compound `CC(C)=CC(=O)/C=C(/C)CCO[C@H]1O[C@@H](COC(=O)/C=C/c2ccc(O)c(O)c2)[C@H](O)[C@@H](O)[C@@H]1O`, the outcome with HepG2 [7] was Active.
The same measure, in the same setting: to `CC(C)=C[C@@H]1C/C(=C\CO[C@H]2O[C@@H](COC(=O)/C=C/c3ccc(O)cc3)[C@H](O)[C@@H](O)[C@@H]2O)C(=O)O1` belongs “Active”.
